Results: ChEMBL document CHEMBL5634109, “Synthesis and mechanism of action of new purine derivatives against triple negative breast cancer” (Eur J Med Chem, 2023)
Activity calls are given as the source filed them. No cut-off for these calls is given here.

Key:
[1] = molecular target: Cyclin-dependent kinase 7 (Homo sapiens, UniProt P50613); test: Inhibition of CDK7 (unknown origin)
HepG2 = test: Antiproliferative activity against human HepG2 cells assessed as reduction in cell viability measured for 48 hrs by MTT assay; format: functional, cell-based; conditions: HepG2, 48 h
[2] = molecular target: Dual specificity protein kinase CLK1 (Homo sapiens, UniProt P49759); test: Inhibition of CLK1 (unknown origin)
MDA-MB-231 [3] = test: Induction of apoptosis in human MDA-MB-231 cells assessed as increase in number of cell debris at 4 uM incubated for 48 hrs; format: functional, cell-based
Cell membrane = test: Induction of mitochondrial membrane potential loss in human MDA-MB-231 cells assessed as increase in fluorescence intensity at 40 uM incubated for 48 hrs by TMRM dye based flow cytometry analysis (reference value: 97.5%)
MDA-MB-231 [4] = test: Inhibition of cell migration human MDA-MB-231 cells assessed as migration distance at 25 uM incubated for 24 hrs by wound healing assay (reference value: 642.72 micrometer); format: functional
[5] = molecular target: Dual specificity protein kinase CLK2 (Homo sapiens, UniProt P49760); test: Inhibition of CLK2 (unknown origin)
MDA-MB-231 [6] = test: Antitumor activity against human MDA-MB-231 cells xenografted in nude mouse assessed as decrease in CD31 expression at 10 mg/kg, ip measured for 3 days by immunohistochemistry analysis; format: functional, organism-based; conditions: time 3.0 day
MDA-MB-231 [7] = test: Inhibition of cell migration human MDA-MB-231 cells assessed as migration distance at 25 uM incubated for 48 hrs by wound healing assay (reference value: 642.72 micrometer); format: functional
HCT-116 = test: Antiproliferative activity against human HCT-116 cells assessed as reduction in cell viability measured for 48 hrs by MTT assay; format: functional, cell-based; conditions: HCT-116, 48 h
MGC-803 = test: Antiproliferative activity against human MGC-803 cells assessed as reduction in cell viability measured for 48 hrs by MTT assay; format: functional, cell-based; conditions: MGC-803, 48 h
MDA-MB-231 [8] = test: Induction of ROS generation in human MDA-MB-231 cells assessed as increase in intracellular ROS level at 40 uM incubated for 48 hrs by DCFH-DA staining based fluorescence microscopic analysis (Rvb=41.4%); format: functional
MDA-MB-231 [9] = test: Antitumor activity against human MDA-MB-231 cells xenografted in nude mouse assessed as inhibition of lung metastasis in tumor at 10 mg/kg, ip measured for 3 days; format: functional, organism-based; conditions: time 3.0 day
MDA-MB-231 [10] = test: Induction of apoptosis in human MDA-MB-231 cells assessed as apoptotic cells at 4 uM incubated for 12 hrs by Annexin V-FITC/PI staining based analysis; format: functional
[11] = Toxicity in nude mouse xenografted with human MDA-MB-231 cells assessed as change in body weight at 10 to 20 mg/kg, ip measured for 3 days; format: organism-based; conditions: in vivo, 72 h, dose 10-20 mg/kg, time 3 day
HUVEC [12] = test: Antiangiogenesis activity in HUVEC cells at 62.5 nM incubated for 12 hrs by microscopic analysis; format: functional, cell-based; conditions: Homo sapiens
NCI-H1299 = test: Antiproliferative activity against human NCI-H1299 cells assessed as reduction in cell viability measured for 48 hrs by MTT assay; format: functional, cell-based; conditions: NCI-H1299, 48 h
MDA-MB-231 [13] = test: Induction of apoptosis in human MDA-MB-231 cells assessed as apoptotic cells at 40 uM incubated for 24 hrs by Annexin V-FITC/PI staining based analysis; format: functional
MDA-MB-231 [14] = test: Induction of apoptosis in human MDA-MB-231 cells assessed as apoptotic cells at 40 uM incubated for 12 hrs by Annexin V-FITC/PI staining based analysis; format: functional
[15] = Antiproliferative activity against human HUVEC cells assessed as reduction in cell viability measured for 48 hrs by MTT assay; format: toxicity, cell-based
MDA-MB-231 [16] = test: Antiproliferative activity against human MDA-MB-231 cells assessed as reduction in viability at 10 uM incubated for 7.5 hrs by MTT assay; format: functional
PC-3 = test: Antiproliferative activity against human PC-3 cells assessed as reduction in cell viability measured for 48 hrs by MTT assay; format: functional, cell-based; conditions: PC-3, 48 h
[17] = Antiproliferative activity against human HEK293 cells assessed as reduction in cell viability measured for 48 hrs by MTT assay; format: toxicity, cell-based
MDA-MB-231 [18] = test: Inhibition of cell migration human MDA-MB-231 cells at 0.01 to 0.4 uM incubated for 20 hrs by DAPI staining based analysis; format: functional; conditions: dose 0.01-0.4 µM
MDA-MB-231 [19] = test: Induction of apoptosis in human MDA-MB-231 cells assessed as apoptotic cells at 40 uM incubated for 48 hrs by Annexin V-FITC/PI staining based analysis; format: functional
MDA-MB-231 [20] = test: Antitumor activity against human MDA-MB-231 cells xenografted in nude mouse assessed as inhibition of proliferation of tumor cells at 10 mg/kg, ip measured for 3 days by H and E staining based analysis; format: functional, organism-based; conditions: time 3.0 day
MDA-MB-231 [21] = test: Induction of apoptosis in human MDA-MB-231 cells assessed as formation of apoptotic bodies at 4 uM incubated for 6 hrs; format: functional, cell-based
MDA-MB-231 [22] = test: Antiproliferative activity against human MDA-MB-231 cells assessed as reduction in cell viability measured for 48 hrs by MTT assay; format: functional, cell-based; conditions: MDA-MB-231, 48 h
[23] = molecular target: Casein kinase I isoform epsilon (Homo sapiens, UniProt P49674); test: Inhibition of CK1epsilon (unknown origin)
MDA-MB-231 [24] = test: Antitumor activity against human MDA-MB-231 cells xenografted in nude mouse assessed as inhibition of spleen metastasis in tumor at 10 mg/kg, ip measured for 3 days; format: functional, organism-based; conditions: time 3.0 day
HUVEC [25] = test: Antiangiogenesis activity in HUVEC cells at 0.03 to 0.3 uM incubated for 12 hrs by microscopic analysis; format: functional, cell-based; conditions: Homo sapiens, dose 0.03-0.3 µM
MDA-MB-231 [26] = test: Induction of apoptosis in human MDA-MB-231 cells assessed as apoptotic cells at 4 uM incubated for 48 hrs by Annexin V-FITC/PI staining based analysis; format: functional
MDA-MB-231 [27] = test: Induction of apoptosis in human MDA-MB-231 cells assessed as increase in number of apoptotic bodies at 4 uM incubated for 48 hrs; format: functional, cell-based
[28] = molecular target: Dual specificity tyrosine-phosphorylation-regulated kinase 1A (Homo sapiens, UniProt Q13627); test: Inhibition of DYRK1A (unknown origin)
MDA-MB-231 [29] = test: Antitumor activity against human MDA-MB-231 cells xenografted in nude mouse assessed as reduction in tumor growth at 10 to 20 mg/kg, ip measured for 3 days; format: functional, organism-based; conditions: dose 10-20 mg/kg, time 3.0 day
MDA-MB-231 [30] = test: Antiproliferative activity against human MDA-MB-231 cells assessed as reduction in viability at 4 uM incubated for 7.5 hrs by MTT assay; format: functional
MDA-MB-231 [31] = test: Induction of apoptosis in human MDA-MB-231 cells assessed as apoptotic cells at 4 uM incubated for 24 hrs by Annexin V-FITC/PI staining based analysis; format: functional
A549 = test: Antiproliferative activity against human A549 cells assessed as reduction in cell viability measured for 48 hrs by MTT assay; format: functional, cell-based; conditions: A549, 48 h
K562 = test: Antiproliferative activity against human K562 cells assessed as reduction in cell viability measured for 48 hrs by MTT assay; format: functional, cell-based; conditions: K562, 48 h
[32] = Hepatotoxicity in nude mouse at 10 mg/kg, ip measured for 3 days; format: toxicity, organism-based; conditions: in vivo, 72 h, time 3 day
[33] = molecular target: Dual specificity protein kinase CLK4 (Homo sapiens, UniProt Q9HAZ1); test: Inhibition of CLK4 (unknown origin)
HT-29 = test: Antiproliferative activity against human HT-29 cells assessed as reduction in cell viability measured for 48 hrs by MTT assay; format: functional, cell-based; conditions: HT-29, 48 h
MDA-MB-231 [34] = test: Antitumor activity against human MDA-MB-231 cells xenografted in nude mouse assessed as decrease in tumor size at 10 to 20 mg/kg, ip measured for 3 days; format: functional, organism-based; conditions: dose 10-20 mg/kg, time 3.0 day
MDA-MB-231 [35] = test: Induction of apoptosis in human MDA-MB-231 cells assessed as change in cell shape at 4 uM incubated for 12 to 24 hrs; format: functional, cell-based; conditions: time 12-24 hrs
MCF7 = test: Antiproliferative activity against human MCF7 cells assessed as reduction in cell viability measured for 48 hrs by MTT assay; format: functional, cell-based; conditions: MCF7, 48 h
MDA-MB-468 = test: Antiproliferative activity against human MDA-MB-468 cells assessed as reduction in cell viability measured for 48 hrs by MTT assay; format: functional, cell-based; conditions: MDA-MB-468, 48 h
MDA-MB-231 [36] = test: Antitumor activity against human MDA-MB-231 cells xenografted in nude mouse assessed as decrease in Ki67 expression at 10 mg/kg, ip measured for 3 days by immunohistochemistry analysis; format: functional, organism-based; conditions: time 3.0 day

Dual specificity protein kinase CLK1, sequence (P49759 whole entry): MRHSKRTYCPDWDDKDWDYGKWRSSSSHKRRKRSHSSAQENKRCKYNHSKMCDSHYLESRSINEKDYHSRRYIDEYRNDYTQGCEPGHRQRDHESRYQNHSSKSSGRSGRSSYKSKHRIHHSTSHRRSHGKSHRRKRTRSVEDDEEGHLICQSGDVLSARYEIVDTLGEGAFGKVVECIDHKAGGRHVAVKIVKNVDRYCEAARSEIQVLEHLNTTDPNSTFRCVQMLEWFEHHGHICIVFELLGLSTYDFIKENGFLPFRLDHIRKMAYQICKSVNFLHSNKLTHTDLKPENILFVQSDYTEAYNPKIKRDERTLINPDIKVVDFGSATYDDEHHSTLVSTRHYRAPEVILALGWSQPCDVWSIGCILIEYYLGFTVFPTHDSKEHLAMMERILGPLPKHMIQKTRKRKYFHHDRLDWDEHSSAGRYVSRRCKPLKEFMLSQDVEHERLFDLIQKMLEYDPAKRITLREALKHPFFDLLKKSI
Casein kinase I isoform epsilon, sequence (P49674 whole entry, canonical isoform): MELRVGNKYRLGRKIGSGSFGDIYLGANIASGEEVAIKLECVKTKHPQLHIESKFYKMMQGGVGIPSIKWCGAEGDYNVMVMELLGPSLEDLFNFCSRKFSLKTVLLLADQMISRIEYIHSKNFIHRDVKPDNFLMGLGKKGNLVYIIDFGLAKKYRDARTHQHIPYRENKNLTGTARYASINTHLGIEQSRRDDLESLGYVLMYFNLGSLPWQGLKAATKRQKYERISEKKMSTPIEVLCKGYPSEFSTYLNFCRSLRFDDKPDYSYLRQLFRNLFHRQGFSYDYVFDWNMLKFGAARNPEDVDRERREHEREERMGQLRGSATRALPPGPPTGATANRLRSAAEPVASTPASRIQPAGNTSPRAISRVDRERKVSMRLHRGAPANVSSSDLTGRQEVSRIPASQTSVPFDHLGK
Dual specificity protein kinase CLK4, sequence (Q9HAZ1 whole entry): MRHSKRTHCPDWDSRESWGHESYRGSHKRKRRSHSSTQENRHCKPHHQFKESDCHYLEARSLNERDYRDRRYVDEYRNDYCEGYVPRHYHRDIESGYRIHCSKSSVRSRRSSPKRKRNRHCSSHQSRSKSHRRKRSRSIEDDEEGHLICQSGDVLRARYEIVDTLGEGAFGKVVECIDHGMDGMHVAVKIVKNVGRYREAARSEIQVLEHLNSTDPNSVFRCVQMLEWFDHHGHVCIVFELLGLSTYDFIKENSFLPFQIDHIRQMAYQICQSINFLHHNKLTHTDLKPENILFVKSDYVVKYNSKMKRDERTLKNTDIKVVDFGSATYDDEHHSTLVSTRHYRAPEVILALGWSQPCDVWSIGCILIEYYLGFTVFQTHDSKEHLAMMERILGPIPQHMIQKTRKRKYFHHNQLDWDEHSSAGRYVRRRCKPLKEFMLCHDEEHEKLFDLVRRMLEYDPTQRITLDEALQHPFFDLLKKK
Cyclin-dependent kinase 7, sequence (P50613 whole entry): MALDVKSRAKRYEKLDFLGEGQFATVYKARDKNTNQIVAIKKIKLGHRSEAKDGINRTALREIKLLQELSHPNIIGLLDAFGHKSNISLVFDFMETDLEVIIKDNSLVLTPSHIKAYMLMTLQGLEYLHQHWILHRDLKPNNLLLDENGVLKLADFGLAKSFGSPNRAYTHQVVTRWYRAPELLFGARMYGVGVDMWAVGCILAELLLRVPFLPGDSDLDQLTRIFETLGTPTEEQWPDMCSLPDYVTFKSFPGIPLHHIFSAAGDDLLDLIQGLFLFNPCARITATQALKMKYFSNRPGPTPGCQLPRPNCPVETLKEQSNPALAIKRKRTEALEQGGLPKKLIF
Dual specificity protein kinase CLK2, sequence (P49760 whole entry): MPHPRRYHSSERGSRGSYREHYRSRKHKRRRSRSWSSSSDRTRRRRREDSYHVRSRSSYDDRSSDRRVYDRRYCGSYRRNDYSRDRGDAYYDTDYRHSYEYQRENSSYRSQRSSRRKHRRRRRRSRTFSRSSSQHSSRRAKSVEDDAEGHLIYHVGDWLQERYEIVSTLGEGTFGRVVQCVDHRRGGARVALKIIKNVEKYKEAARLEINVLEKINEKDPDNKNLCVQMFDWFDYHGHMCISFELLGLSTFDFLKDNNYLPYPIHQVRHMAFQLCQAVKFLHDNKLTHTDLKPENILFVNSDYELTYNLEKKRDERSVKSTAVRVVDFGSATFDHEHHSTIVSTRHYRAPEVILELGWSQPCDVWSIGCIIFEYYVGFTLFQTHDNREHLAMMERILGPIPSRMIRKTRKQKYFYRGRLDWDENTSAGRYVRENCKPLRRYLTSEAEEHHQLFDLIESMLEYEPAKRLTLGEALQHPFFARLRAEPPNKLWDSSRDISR

- IC50 [1]: 390 nM
- IC50 (HepG2): 250 nM
- IC50 [2]: 278 nM
- Activity (Cell membrane): 80.9%
- IC50 [5]: 23 nM
- IC50 (HCT-116): 2790 nM
- IC50 (MGC-803): 3520 nM
- IC50 (NCI-H1299): 4050 nM
- IC50 (PC-3): 3920 nM
- IC50 (MDA-MB-231 [22]): 3550 nM
- IC50 [23]: 38 nM
- IC50 [28]: 122 nM
- IC50 (A549): 370 nM
- IC50 (K562): 240 nM
- IC50 [33]: 73 nM
- IC50 (HT-29): 3370 nM
- IC50 (MCF7): 2670 nM
- IC50 (MDA-MB-468): 3690 nM
Structure (SMILES): OCCN1CCC(C2CCN(c3nc(NCc4cccc(F)c4F)c4ncn(C5CCCC5)c4n3)CC2)CC1
- Activity (MDA-MB-231 [3]): Active
- Activity (MDA-MB-231 [4]): 24.88 um
- Activity (MDA-MB-231 [6]): Active
- Activity (MDA-MB-231 [7]): 53.38 um
- Activity (MDA-MB-231 [8]): 48.6%
- Activity (MDA-MB-231 [9]): Active
- Activity (MDA-MB-231 [10]): 5.6%
- Activity [11]: Non-Toxic
- Activity (HUVEC [12]): Active
- Activity (MDA-MB-231 [13]): >95%
- Activity (MDA-MB-231 [14]): >95%
- IC50 at 48 h [15]: 6180 nM
- Activity (MDA-MB-231 [16]): ~100%
- IC50 at 48 h [17]: 4280 nM
- inhibition (MDA-MB-231 [18]): Active
- Activity (MDA-MB-231 [19]): >95%
- Activity (MDA-MB-231 [20]): Active
- Activity (MDA-MB-231 [21]): Active
- Activity (MDA-MB-231 [24]): Active
- Activity (HUVEC [25]): Active
- Activity (MDA-MB-231 [26]): 54.9%
- Activity (MDA-MB-231 [27]): Active
- Activity (MDA-MB-231 [29]): Active
- Activity (MDA-MB-231 [30]): ~100%
- Activity (MDA-MB-231 [31]): 13%
- Activity [32]: Non-Toxic
- Activity (MDA-MB-231 [34]): Active
- Activity (MDA-MB-231 [35]): Active
- Activity (MDA-MB-231 [36]): Active
